What was measured:
Human HDAC2 = molecular target: T1, Human HDAC2 (Homo sapiens, UniProt Q92769); assay: HDAC2 biochemical assay, AMC-labeled peptide substrate; conditions: read-out: HDAC Isoform IC50 (nM) 2
T1 construct: full length with C-terminal GST-tag; GST (C); host or cells: baculovirus expression system
Method: (§1) Activity against all zinc-dependent HDACs 1 to 11 was assessed by using an acetylated AMC-labeled peptide substrate. The substrate RHKK(Ac)AMC was used for HDAC1, HDAC2, HDAC3, HDAC6 and HDAC10; the substrate used for HDAC8 was RHK(Ac)K(Ac)AMC. Activity against the class IIa HDACs (HDAC4, 5, 7, 9) and HDAC11 was determined using a class IIa-specific substrate, BOC-Lys(trifluoroacetyl)-AMC (“Trifluoroacetyl Lysine”; see Lahm et al, 2007, PNAS, 104, 17335-17340). All assays were based on the AMC-labeled substrate and developer combination.
(§2) The protocol involved a two-step reaction: first, the substrate with the acetylated lysine side chain is incubated with a sample containing HDAC activity, to produce the deacetylated products, which are then digested in the second step by the addition of developer to produce the fluorescent signal proportional to the amount of deacetylated substrates.
Human HDAC2 (GenBank Accession No. NM_001527), full length with C-terminal GST-tag, MW=82.9 kDa, expressed inbaculovirus expression system.
(§3) Assay Buffer: 50 mM Tris-HCl, pH8.0, 137 mM NaCl, 2.7 mM KCl, 1 mM MgC2. Before use, 1 mg/mL BSA and DMSO are added.
HDAC2: 0.07 ng/ul HDAC2 and 50 μM HDAC substrate are in the reaction buffer with 1% DMSO final. Incubate for 1 hour at 30° C.
(§4) Stage 1: Deacetylation of substrate by incubation of HDAC enzymes with compounds
(§5) Stage 2: Development by addition of Developer to digest the deacetylated substrate, and generate the fluorescent colour; Detection: 360/460 Ex/Em

Human HDAC4 = molecular target: T2, Human HDAC4 (Homo sapiens, UniProt P56524); assay: HDAC4 biochemical assay, class IIa-specific substrate; conditions: read-out: HDAC Isoform IC50 (nM) 4
T2 construct: amino acids 627-1085 with N-terminal GST tag; GST (N); host or cells: baculovirus expression system
T2 sequence (P56524 627-1084 limits assumed): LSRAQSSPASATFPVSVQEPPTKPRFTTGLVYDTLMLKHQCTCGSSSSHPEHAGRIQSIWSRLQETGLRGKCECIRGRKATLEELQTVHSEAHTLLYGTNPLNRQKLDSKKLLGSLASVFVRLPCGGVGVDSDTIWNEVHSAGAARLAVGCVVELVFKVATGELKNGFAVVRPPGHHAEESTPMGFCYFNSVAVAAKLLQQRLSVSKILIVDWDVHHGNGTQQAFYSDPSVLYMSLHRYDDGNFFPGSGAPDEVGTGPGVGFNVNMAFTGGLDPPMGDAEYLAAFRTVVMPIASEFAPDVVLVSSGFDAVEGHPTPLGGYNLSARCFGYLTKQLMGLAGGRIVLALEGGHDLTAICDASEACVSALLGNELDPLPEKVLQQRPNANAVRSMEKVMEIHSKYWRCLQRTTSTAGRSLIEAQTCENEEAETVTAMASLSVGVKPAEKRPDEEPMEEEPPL
Procedure, shortened: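 GST-tagged human HDAC4 (aa 627-1085, baculovirus) at 0.004 ng/ul was incubated 30 min at room temperature with 50 μM class IIa-specific substrate BOC-Lys(trifluoroacetyl)-AMC in Tris-HCl pH 8.0 buffer with BSA, 1% DMSO. Developer then released AMC, read at 360/460 nm.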

Human HDAC5 = molecular target: T3, Human HDAC5 (Homo sapiens, UniProt Q9UQL6); assay: HDAC5 biochemical assay, class IIa-specific substrate; conditions: read-out: HDAC Isoform IC50 (nM) 5
T3 construct: full length with C-terminal His tag, MW=51.1 kDa; His (C); host or cells: baculovirus expression system
T3 sequence (Q9UQL6 656-1122 limits assumed): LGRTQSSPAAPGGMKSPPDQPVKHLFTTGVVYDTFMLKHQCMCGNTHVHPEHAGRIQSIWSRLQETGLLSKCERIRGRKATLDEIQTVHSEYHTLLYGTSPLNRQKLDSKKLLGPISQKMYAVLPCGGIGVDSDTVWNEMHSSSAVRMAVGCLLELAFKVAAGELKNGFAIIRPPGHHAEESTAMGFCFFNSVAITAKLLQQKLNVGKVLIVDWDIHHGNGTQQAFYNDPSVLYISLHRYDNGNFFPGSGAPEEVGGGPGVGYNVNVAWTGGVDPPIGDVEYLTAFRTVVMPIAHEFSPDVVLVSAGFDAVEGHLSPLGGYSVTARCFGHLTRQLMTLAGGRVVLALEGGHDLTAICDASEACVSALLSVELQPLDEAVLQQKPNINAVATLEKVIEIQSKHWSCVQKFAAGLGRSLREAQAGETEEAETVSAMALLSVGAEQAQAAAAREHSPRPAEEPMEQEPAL
Procedure, shortened: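 Full-length C-terminal His-tagged HDAC5 from baculovirus (0.05 ng/ul) incubated 30 min at room temperature with 50 μM Boc-Lys(trifluoroacetyl)-AMC and compound, Tris pH 8.0 buffer with BSA, 1% DMSO. Developer then releases AMC; fluorescence 360/460 nm.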

Human HDAC8 = molecular target: T4, Human HDAC8 (Homo sapiens, UniProt Q9BY41); assay: HDAC8 biochemical assay, AMC-labeled peptide substrate; conditions: read-out: HDAC Isoform IC50 (nM) 8
T4 construct: full length with C-terminal His tag, MW=42.6 kDa; His (C); host or cells: baculovirus expression system
T4 sequence (Q9BY41 1-377): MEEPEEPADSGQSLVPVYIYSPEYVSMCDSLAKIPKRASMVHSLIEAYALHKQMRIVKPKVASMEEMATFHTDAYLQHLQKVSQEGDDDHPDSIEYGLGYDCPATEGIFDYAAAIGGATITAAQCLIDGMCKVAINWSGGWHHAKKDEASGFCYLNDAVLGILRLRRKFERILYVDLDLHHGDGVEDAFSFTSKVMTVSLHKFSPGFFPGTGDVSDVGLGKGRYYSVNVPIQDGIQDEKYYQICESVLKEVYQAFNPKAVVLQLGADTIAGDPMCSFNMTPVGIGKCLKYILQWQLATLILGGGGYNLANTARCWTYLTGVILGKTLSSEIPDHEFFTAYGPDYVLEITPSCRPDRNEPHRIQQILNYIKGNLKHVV
Method: as §1, §2
Human HDAC8 (GenBankAccession No. NM_018486), full length with C-terminal His tag, MW=42.6 kDa, expressed in a baculovirus expression system.
as §3
HDAC8: 1 ng/ul HDAC8 and 100 µM HDAC8 substrate are in the reaction buffer with 1% DMSO final. Incubate for 2 hours at 30° C.
as §4, §5

Human HDAC9 = molecular target: T5, Human HDAC9 (Homo sapiens, UniProt Q9UKV0); assay: HDAC9 biochemical assay, class IIa-specific substrate; conditions: read-out: HDAC Isoform IC50 (nM) 9
T5 construct: amino acids 604-1066 with C-terminal His tag; His (C); host or cells: baculovirus expression system
T5 sequence (Q9UKV0 604-1066 isoform Q9UKV0-5): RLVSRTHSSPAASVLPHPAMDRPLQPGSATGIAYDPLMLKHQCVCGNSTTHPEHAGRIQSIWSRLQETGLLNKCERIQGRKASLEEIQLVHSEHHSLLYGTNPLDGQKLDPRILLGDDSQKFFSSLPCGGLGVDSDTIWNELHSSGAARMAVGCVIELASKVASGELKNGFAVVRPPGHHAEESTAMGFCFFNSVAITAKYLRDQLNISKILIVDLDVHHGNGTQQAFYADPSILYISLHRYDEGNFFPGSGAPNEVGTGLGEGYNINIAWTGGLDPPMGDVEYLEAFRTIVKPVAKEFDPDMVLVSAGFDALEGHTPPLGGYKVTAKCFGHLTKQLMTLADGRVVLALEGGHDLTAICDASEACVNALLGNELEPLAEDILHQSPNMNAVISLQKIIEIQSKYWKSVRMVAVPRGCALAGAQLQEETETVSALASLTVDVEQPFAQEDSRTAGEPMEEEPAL
Procedure, shortened: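 HDAC9 residues 604-1066 (C-terminal His tag, baculovirus-expressed) at 0.06 ng/ul with 50 μM class IIa substrate Boc-Lys(trifluoroacetyl)-AMC in Tris-HCl pH 8.0 buffer with BSA and 1% DMSO. 30 min at room temperature, then developer added; fluorescence read at 360/460 nm Ex/Em.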

Human HDAC10 = molecular target: T6, Human HDAC10 (Homo sapiens, UniProt Q969S8); assay: HDAC10 biochemical assay, AMC-labeled peptide substrate; conditions: read-out: HDAC Isoform IC50 (nM) 10
T6 construct: Human HDAC10 (a.a. 1-481); GST (N); His (C); host or cells: baculovirus expression system
T6 sequence (Q969S8 1-481): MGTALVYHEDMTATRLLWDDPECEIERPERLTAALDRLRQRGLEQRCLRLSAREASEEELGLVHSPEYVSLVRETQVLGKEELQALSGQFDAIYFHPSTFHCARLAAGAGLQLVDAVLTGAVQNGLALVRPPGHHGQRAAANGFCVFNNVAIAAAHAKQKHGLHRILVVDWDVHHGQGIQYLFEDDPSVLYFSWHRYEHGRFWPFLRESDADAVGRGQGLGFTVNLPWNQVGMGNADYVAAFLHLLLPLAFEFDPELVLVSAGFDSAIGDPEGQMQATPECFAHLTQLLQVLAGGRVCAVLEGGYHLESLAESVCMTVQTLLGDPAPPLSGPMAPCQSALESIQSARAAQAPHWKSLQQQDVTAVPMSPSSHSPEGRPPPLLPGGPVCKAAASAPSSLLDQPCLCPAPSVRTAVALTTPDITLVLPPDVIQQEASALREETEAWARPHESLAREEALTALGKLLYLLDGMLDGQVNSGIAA
Method: as §1, §2
Human HDAC10 (a.a. 1-481), GenBank Accession No. NM_032019 with N-terminal GST tag and C-terminal His tag, MW=78 kDa, expressed in baculovirus expression system.
as §3
HDAC10: 12 ng/ul HDAC10 and 50 μM HDAC substrate are in the reaction buffer with 1% DMSO final. Incubate for 2 hours at 30° C.
as §4, §5

T1 sequence (Q92769 whole entry, canonical isoform): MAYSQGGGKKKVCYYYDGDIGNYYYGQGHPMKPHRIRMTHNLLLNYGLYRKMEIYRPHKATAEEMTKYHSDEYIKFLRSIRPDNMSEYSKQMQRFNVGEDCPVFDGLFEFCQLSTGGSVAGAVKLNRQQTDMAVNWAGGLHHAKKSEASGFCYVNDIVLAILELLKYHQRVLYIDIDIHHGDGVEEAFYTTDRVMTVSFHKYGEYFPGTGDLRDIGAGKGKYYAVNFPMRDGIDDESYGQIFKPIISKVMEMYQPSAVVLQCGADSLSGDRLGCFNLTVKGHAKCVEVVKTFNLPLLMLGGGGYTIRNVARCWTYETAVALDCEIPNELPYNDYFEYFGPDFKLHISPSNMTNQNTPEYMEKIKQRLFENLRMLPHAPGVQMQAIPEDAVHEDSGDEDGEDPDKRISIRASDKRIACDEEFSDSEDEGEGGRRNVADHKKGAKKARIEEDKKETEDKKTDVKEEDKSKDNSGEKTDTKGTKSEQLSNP

| IC50 (Human HDAC2) | IC50 (Human HDAC4) | IC50 (Human HDAC5) | IC50 (Human HDAC8) | IC50 (Human HDAC9) | IC50 (Human HDAC10) | Compound |
| --- | --- | --- | --- | --- | --- | --- |
| > 10000 nM | ≤ 10000 nM | ≤ 10000 nM | ≤ 10000 nM | ≤ 10000 nM | > 10000 nM | FC(F)(F)c1nc(-c2ccc(CN(c3cnccn3)c3cc(-c4ccccn4)cnn3)s2)no1 [Example GM, N-(Pyrazin-2-yl)-5-(pyridin-2-yl)-N-({5-[5-(trifluoromethyl)-1,2,4-oxadiazol-3-yl]thiophen-2-yl}methyl)pyridazin-3-amine] |
| > 10000 nM | ≤ 10000 nM | ≤ 1000 nM | ≤ 10000 nM | ≤ 10000 nM | > 10000 nM | O=C(c1cnnc(N(Cc2ccc(-c3noc(C(F)(F)F)n3)s2)c2cnccn2)c1)N1C[C@@H]2C[C@H]1CO2 [Example FV, 5-[(1S,4S)-2-Oxa-5-azabicyclo[2.2.1]heptane-5-carbonyl]-N-(pyrazin-2-yl)-N-({5-[5-(trifluoromethyl)-1,2,4-oxadiazol-3-yl]thiophen-2-yl}methyl)pyridazin-3-amine] |
| > 10000 nM | ≤ 10000 nM | ≤ 1000 nM | ≤ 10000 nM | ≤ 10000 nM | > 10000 nM | FC(F)(F)c1nc(-c2ccc(CN(c3cnccn3)c3cc(N4CCCC4)cnn3)s2)no1 [Example FQ, N-(Pyrazin-2-yl)-5-(pyrrolidin-1-yl)-N-({5-[5-(trifluoromethyl)-1,2,4-oxadiazol-3-yl]thiophen-2-yl}methyl)pyridazin-3-amine] |
| > 10000 nM | ≤ 10000 nM | ≤ 10000 nM | ≤ 10000 nM | ≤ 10000 nM | > 10000 nM | O=C(c1nccnc1N(Cc1ccc(-c2noc(C(F)(F)F)n2)s1)c1cnccn1)N1CCC1 [Example GP, 3-(Azetidine-1-carbonyl)-N-(pyrazin-2-yl)-N-({5-[5-(trifluoromethyl)-1,2,4-oxadiazol-3-yl]thiophen-2-yl}methyl)pyrazin-2-amine] |
| > 10000 nM | ≤ 10000 nM | ≤ 10000 nM | ≤ 10000 nM | ≤ 10000 nM | > 10000 nM | FC(F)(F)c1nc(-c2ccc(CN(c3cnccn3)c3cc(CN4CCOCC4)ccn3)s2)no1 [Example GI, N-{4-[(Morpholin-4-yl)methyl]pyridin-2-yl}-N-({5-[5-(trifluoromethyl)-1,2,4-oxadiazol-3-yl]thiophen-2-yl}methyl)pyrazin-2-amine] |
| > 10000 nM | ≤ 1000 nM | ≤ 1000 nM | ≤ 10000 nM | ≤ 10000 nM | > 10000 nM | O=C(c1cnnc(N(Cc2ccc(-c3noc(C(F)(F)F)n3)s2)c2cnccn2)c1)N1CC(C(F)F)C1 [Example GK, 5-[3-(Difluoromethyl)azetidine-1-carbonyl]-N-(pyrazin-2-yl)-N-({5-[5-(trifluoromethyl)-1,2,4-oxadiazol-3-yl]thiophen-2-yl}methyl)pyridazin-3-amine] |
| > 10000 nM | ≤ 10000 nM | ≤ 1000 nM | ≤ 10000 nM | ≤ 10000 nM | > 10000 nM | O=C(c1cnnc(N(Cc2ccc(-c3noc(C(F)(F)F)n3)s2)c2cnccn2)c1)N1C[C@H]2C[C@@H]1CO2 [Example FW, 5-[(1R,4R)-2-Oxa-5-azabicyclo[2.2.1]heptane-5-carbonyl]-N-(pyrazin-2-yl)-N-({5-[5-(trifluoromethyl)-1,2,4-oxadiazol-3-yl]thiophen-2-yl}methyl)pyridazin-3-amine] |
| > 10000 nM | ≤ 10000 nM | ≤ 10000 nM | ≤ 10000 nM | ≤ 10000 nM | > 10000 nM | Fc1ccnc(N(Cc2ccc(-c3noc(C(F)(F)F)n3)s2)c2cnccn2)c1 [Example AG, N-(4-Fluoropyridin-2-yl)-N-({5-[5-(trifluoromethyl)-1,2,4-oxadiazol-3-yl]thiophen-2-yl}methyl)pyrazin-2-amine] |
| > 10000 nM | ≤ 1000 nM | ≤ 1000 nM | ≤ 10000 nM | ≤ 10000 nM | > 10000 nM | FC(F)(F)c1nc(-c2ccc(CN(c3cnccn3)c3cc(CN4CCCC4)ccn3)s2)no1 [Example GG, N-{4-[(Pyrrolidin-1-yl)methyl]pyridin-2-yl}-N-({5-[5-(trifluoromethyl)-1,2,4-oxadiazol-3-yl]thiophen-2-yl}methyl)pyrazin-2-amine] |
| > 10000 nM | ≤ 10000 nM | ≤ 1000 nM | ≤ 10000 nM | ≤ 10000 nM | > 10000 nM | CC1(c2cnnc(N(Cc3ccc(-c4noc(C(F)(F)F)n4)s3)c3cnccn3)c2)COC1 [Example GT, 5-(3-Methyloxetan-3-yl)-N-(pyrazin-2-yl)-N-({5-[5-(trifluoromethyl)-1,2,4-oxadiazol-3-yl]thiophen-2-yl}methyl)pyridazin-3-amine] |
| > 10000 nM | ≤ 1000 nM | ≤ 1000 nM | ≤ 10000 nM | ≤ 10000 nM | > 10000 nM | FC(F)(F)c1nc(-c2ccc(CN(c3cnccn3)c3ccc(CN4CCOCC4)nn3)s2)no1 [Example FN, 6-[(Morpholin-4-yl)methyl]-N-(pyrazin-2-yl)-N-({5-[5-(trifluoromethyl)-1,2,4-oxadiazol-3-yl]thiophen-2-yl}methyl)pyridazin-3-amine] |

| Compound | IC50 (Human HDAC2) | IC50 (Human HDAC4) | IC50 (Human HDAC5) | IC50 (Human HDAC8) | IC50 (Human HDAC9) | IC50 (Human HDAC10) |
| --- | --- | --- | --- | --- | --- | --- |
| O=C(c1cnnc(N(Cc2ccc(-c3noc(C(F)(F)F)n3)s2)c2cnccn2)c1)N1C2CCC1COC2 [Example GB, 5-{3-Oxa-8-azabicyclo[3.2.1]octane-8-carbonyl}-N-(pyrazin-2-yl)-N-({5-[5-(trifluoromethyl)-1,2,4-oxadiazol-3-yl]thiophen-2-yl}methyl)pyridazin-3-amine] | > 10000 nM | ≤ 10000 nM | ≤ 1000 nM | ≤ 10000 nM | ≤ 10000 nM | > 10000 nM |
